Measurements taken from patent publication US7547783B2, “Transition metal complexes” (Shell Oil Company, priority 2004, dated 2009).

Assay: practical solubility of the transition metal complexes at ambient temperature
Conditions: not given
Protocol: The practical solubility of the transition metal complexes was determined at ambient temperature in the inert atmosphere of the dry box.
1 mg of solid complex was contacted with 0.5 ml of benzene-D6 in an NMR-tube (5 mm external diameter) and gently swirled.

Q: For `CCCCCCCCCCCCCCCCCCCCOc1c(-c2ccccc2)cc(N=C(C)c2cccc(C(C)=Nc3cc(-c4ccccc4)c(OCCCCCCCCCCCCCCCCCCCC)c(-c4ccccc4)c3)n2)cc1-c1ccccc1.[Cl-].[Cl-].[Cl-].[Cr+3]` [Example 9, 2,6-bis[1-(4-eicosanoxy-3,5-diphenylphenylimino)ethyl]pyridine chromium[III] trichloride complex], which “solubility in toluene or benzene-D6” value is on record?
A: ca. 50 mg/ml

Q: Which “solubility in C6D6 (in words)” value does the source give for `CCCCCCCCCCCCCCCCCCCCOc1cc(C)c([N+]2=C(C)c3cccc4[n+]3[Fe]2([Cl])([Cl])[N+](c2cc(C(C)C)c(OCCCCCCCCCCCCCCCCCCCC)cc2C)=C4C)cc1C(C)C` [Example 12, 2,6-bis[1-(2-methyl-4-eicosanoxy-5-isopropylphenylimino)ethyl]pyridine iron (II) dichloride] here?
A: soluble

Same assay, conditions: 20 °C, organic solvent or mixture, thermodynamic from solid

Q: With `CC1=[N+](c2cc(-c3ccccc3)c(O)c(-c3ccccc3)c2)[Fe]2([Cl])([Cl])[N+](c3c(C)cc(C)cc3C)=C(C)c3cccc1[n+]32` [Example 14, 2-[1-(2,4,6-trimethylphenylimino)ethyl]-6-[1-(4-hydroxy-3,5-diphenylphenylimino)ethyl]pyridine iron (II) dichloride, reference compound] as the molecule, how does the solubility at 24 h read?
A: < 1 mg/mL

Q: For `CCCCCCCCCCCCCCCCCCCCOc1ccc([N+]2=C(C)c3cccc4[n+]3[Fe]2([Cl])([Cl])[N+](c2ccc(OCCCCCCCCCCCCCCCCCCCC)cc2C)=C4C)c(C)c1` [Example 11, 2,6-bis[1-(4-eicosanoxy-2-methylphenylimino)ethyl]pyridine iron[II] chloride complex, reference compound], which solubility at 24 h is on record?
A: < 1 mg/mL

Q: For `CC1=[N+](c2cc(C(C)(C)C)cc(C(C)(C)C)c2)[Fe]2([Cl])([Cl])[N+](c3c(C)cc(C)cc3C)=C(C)c3cccc1[n+]32` [Example 2, 2-[1-(2,4,6-trimethylphenylimino)ethyl]-6-[1-(3,5-di-tert-butylphenylimino)ethyl]pyridine iron[II] chloride complex, reference compound], which solubility at 24 h is on record?
A: < 1 mg/mL

Q: Which solubility at 24 h does the source give for `CCCCCCCCCCCCCCCCCCCCOc1c(-c2ccccc2)cc([N+]2=C(C)c3cccc4[n+]3[Co]2([Cl])([Cl])[N+](c2c(C)cc(C)cc2C)=C4C)cc1-c1ccccc1` [Example 4, 2-[1-(2,4,6-trimethylphenylimino)ethyl]-6-[1-(4-eicosanoxy-3,5-diphenylphenylimino)ethyl]pyridine cobalt[II] dichloride complex] here?
A: 50 mg/mL

Q: With `CCCOc1c(-c2ccccc2)cc([N+]2=C(C)c3cccc4[n+]3[Co]2([Cl])([Cl])[N+](c2c(C)cc(C)cc2C)=C4C)cc1-c1ccccc1` [Example 13, 2-[1-(2,4,6-trimethylphenylimino)ethyl]-6-[1-(4-propoxy-3,5-diphenylphenylimino)ethyl]pyridine cobalt[II] chloride complex, reference compound] as the molecule, how does the solubility at 24 h read?
A: < 1 mg/mL

Q: With `CCCCCCCCCCCCCCCCCCCCOc1cc(C)c([N+]2=C(C)c3cccc4[n+]3[Fe]2([Cl])([Cl])[N+](c2cc(C(C)C)c(OCCCCCCCCCCCCCCCCCCCC)cc2C)=C4C)cc1C(C)C` [Example 12, 2,6-bis[1-(2-methyl-4-eicosanoxy-5-isopropylphenylimino)ethyl]pyridine iron (II) dichloride] as the molecule, how does the solubility at 24 h read?
A: ~10 mg/mL

Q: For `CCCCCCCCCCCCCCCCCCCCOc1c(-c2ccccc2)cc([N+]2=C(C)c3cccc4[n+]3[Co]2([Cl])([Cl])[N+](c2cc(-c3ccccc3)c(OCCCCCCCCCCCCCCCCCCCC)c(-c3ccccc3)c2)=C4C)cc1-c1ccccc1` [Example 8, 2,6-bis[1-(4-eicosanoxy-3,5-diphenylphenylimino)ethyl]pyridine cobalt[II] dichloride complex], which solubility at 24 h is on record?
A: ~100 mg/mL

Q: With `CCCCCCCCCCCCCCCCCCCCOc1c(-c2ccccc2)cc([N+]2=C(C)c3cccc4[n+]3[Fe]2([Cl])([Cl])[N+](c2c(C)cc(C)cc2C)=C4C)cc1-c1ccccc1` [Example 3, 2-[1-(2,4,6-trimethylphenylimino)ethyl]-6-[1-(4-eicosanoxy-3,5-diphenylphenylimino)ethyl]pyridine iron[II] dichloride complex] as the molecule, how does the solubility at 24 h read?
A: ~50 mg/mL

Q: With `CCCCCCCCCCCCCCCCCCCCOc1c(-c2ccccc2)cc([N+]2=C(C)c3cccc4[n+]3[Co]2([Cl])([Cl])[N+](c2ccccc2C(C)(C)C)=C4C)cc1-c1ccccc1` [Example 10, 2-[1-(2-tert-butylphenylimino)ethyl]-6-[1-(4-eicosanoxy-3,5-diphenylphenylimino)ethyl]pyridine cobalt[II] chloride complex] as the molecule, how does the solubility at 24 h read?
A: ~50 mg/mL

Q: With `CCCCCCCCCCCCCCCCCCCCOc1c(-c2ccccc2)cc([N+]2=C(C)c3cccc4[n+]3[Fe]2([Cl])([Cl])[N+](c2cc(-c3ccccc3)c(OCCCCCCCCCCCCCCCCCCCC)c(-c3ccccc3)c2)=C4C)cc1-c1ccccc1` [Example 7, 2,6-bis[1-(4-eicosanoxy-3,5-diphenylphenylimino)ethyl]pyridine iron [II] dichloride complex] as the molecule, how does the solubility at 24 h read?
A: ~100 mg/mL

Same assay, conditions: at 20° C.

Q: For `CCCCCCCCCCCCCCCCCCCCOc1c(-c2ccccc2)cc(N=C(C)c2cccc(C(C)=Nc3c(C)cc(C)cc3C)n2)cc1-c1ccccc1.[Cl-].[Cl-].[Cl-].[Cr+3]` [Example 6, 2-[1-(2,4,6-trimethylphenylimino)ethyl]-6-[1-(4-eicosanoxy-3,5-diphenylphenylimino)ethyl]pyridine chromium[III] trichloride complex], which “solubility in toluene or benzene-D6” value is on record?
A: ca. 1 mg/ml

Q: Which “solubility in toluene or benzene-D6” value does the source give for `CCCCCCCCCCCCCCCCCCCCOc1c(-c2ccccc2)cc(N=C(C)c2cccc(C(C)=Nc3c(C)cc(C)cc3C)n2)cc1-c1ccccc1.FC(F)(F)c1cc([B-](c2cc(C(F)(F)F)cc(C(F)(F)F)c2)(c2cc(C(F)(F)F)cc(C(F)(F)F)c2)c2cc(C(F)(F)F)cc(C(F)(F)F)c2)cc(C(F)(F)F)c1.[Cl][Co+]` [Example 5, 2-[1-(2,4,6-trimethylphenylimino)ethyl]-6-[1-(4-eicosanoxy-3,5-diphenylphenylimino)ethyl]pyridine cobalt[II] chloride tetrakis[3,5-bis[trifluoromethyl)phenyl]borate] here?
A: ca. 10 mg/ml
